The series can be described thus: Pharmacokinetic study, subcutaneous vs IV administration, plasma levosimendan and OR-1896 by HPLC/MS/MS. Particulars: male, Sprague Dawley, rat, in vivo. On the procedure:
A pharmacokinetic study was conducted in male Sprague Dawley rats to compare subcutaneous administration of a composition of the present invention with IV administration of a formulation of levosimendan. The study evaluated levosimendan blood levels and pain at the injection site.
This study involved comparing the results of administering two subcutaneous compositions according to embodiments of the present invention to a previous pharmacokinetic study in which male rats were dosed by tail vein levosimendan as an IV bolus injection at 0.5 mg/kg using a 0.25 mg/ml solution. Thus, this study comprised three study arms: • a. IV administration of a composition comprising levosimendan (0.25 mg/ml) and phosphate buffer (10 mmolar), prepared in sterile water for injection and adjusted to a pH of 7.0 to 7.9 using 1 N NaOH or 10 N NaOH; this composition was administered at a dose of 0.5 mg/kg. • b. Subcutaneous administration of a composition comprising levosimendan (1.0 mg/ml), Captisol® (100 mg/ml), and phosphate buffer (10 mmolar), prepared in sterile water for injection and adjusted to a pH of 7.0 to 7.9 using 1 N NaOH or 10 N NaOH; this composition was administered at a dose of 0.5 mg/kg. • c. […]
Plasma samples were analyzed for levosimendan and OR-1896 (the primary metabolite) by HPLC/MS/MS. […]

In the case of `C[C@@H]1CC(=O)NN=C1c1ccc(NN=C(C#N)C#N)cc1` [levosimendan, Levosimendan], the “start of the β phase (loss from blood mainly due to metabolism)” value is recorded as “about 2 hours”.

Values taken from patent US11701355B2, “Levosimendan for treating pulmonary hypertension with heart failure with preserved ejection fraction (PH-HFpEF)” (Tenax Therapeutics, Inc., priority 2019, dated 2023).
